Test results as given in patent US5091521A, “Cis-platinum complexes, a process for the preparation thereof, and pharmaceuticals containing these compounds” (priority 1986, dated 1992).

Key:
L1210 leukemia cells = test: Colonization by L1210 leukemia cells in soft agar (cytostatic activity in vitro); type: cell-based, mouse; settings: L1210 colony formation in soft agar, 7 days
Method: The cytostatic activity of the compounds according to the invention is determined on L1210 leukemia cells of the mouse. In detail, the following test systems were used:
a) Colonization by L1210 leukemia cells in soft agar
In this test cytostatically active substances cause the number of colonies observed to be reduced compared to an untreated control. In detail, the test is carried out as follows:
500 leukemia cells per plate are incubated for 1 hour at 37° C. with different concentrations of the test substance. The cells are subsequently washed twice with McCoy 5A medium and finally poured out into petri dishes after adding 0.3% of agar. Controls are incubated only with fresh medium. Instead of incubating for one hour, different concentrations and test substances are in many cases mixed with the upper agar layer in order to thus achieve continuous exposition of the cells over the entire incubation time. After solidification of the agar, the plates are incubated in an incubator for 7 days at 37° C. (5% by volume of CO2, 95% relative atmospheric humidity). The number of colonies produced with a diameter of more than 60 μm is subsequently counted. The results are given as the number of colonies in the treated agar plate, in per cent of the untreated control. From the dose-action curve thus attained, the IC50 is determined as a measure of the activity of the substance.

NMRI mice = test: Determination of the acute toxicity; type: in vivo, mouse; settings: 1 × i.p., survival on day 14
Method: b) Determination of the acute toxicity
In order to determine the acute toxicity, NMRI mice are injected intraperitoneally on day 0 with various doses of a test substance, dissolved in 0.5 ml of 5% glucose solution. Control groups receive only 0.5 ml of 5% strength glucose solution. 5 mice are used per concentration of the test substance. On day 14, the number of surviving mice is determined, and the LD5, LD50 and LD95 are determined from this according to the Lichtfield Wilcoxon method.

L1210 leukemia = test: In vivo activity of the platinum complexes against L1210 leukemia of the mouse; parameters: optimum Dose (greatest antitumoral effect), L1210: unit not given here; settings: for T/C % L1210 (at optimum dose): mean survival time vs untreated control; for cytostatic activity in the "in vivo" test using the L1210 tumor cell line: in words
Method: c) In vivo activity of the platinum complexes against L1210 leukemia of the mouse
Ascitic fluid is removed under sterile conditions from DBA2 mice (female, 18-20 g) 7 days after implantation. The ascites is washed three times with PBS, counted, and adjusted to a cell number of 10^6 in 0.2 ml of PBS.
10^6 cells, suspended in 0.2 ml of PBS, are subsequently injected intraperitoneally into DBF1 mice (female, 18-20 g). 6 animals per group are employed for each substance concentration or as control.
Determination of the antitumoral activity
a) The animals are weighed on days 1 and 5 after injection of the test substance. A weight loss of more than 20% on day 5 is regarded as an indicator of a toxic substance action.
b) At the end of the experiment (death of all animals or surviving animals on day 60), the mean survival time of the animals in each group is determined, so long as at least 65% of the animals were still living on day 5 of the experiment. The average survival time is determined exclusively for animals dying during the experiment. Long-term survivors (LTS) are not taken into account in this calculation and are specified separately.
From the mean survival time (MST) of the […] group and of the control group (MSTc), the antitumoral activity (T/C) for each substance concentration is determined in per cent of the untreated control from the following formula: [formula]
The dose which causes the greatest antitumoral effect (optimal dosage) and in each case one dose step above and below this dose are collated in Table 1. Animals which are still living on day 60 of the experiment are listed separately as "long-term survivors".

Solubility in water = type: physicochemical
[1] = tested on: tumor cells which are resistant towards cis-platin; test: Cross resistance to cis-diamminedichloroplatinum(II) in vitro / activity in cisplatin-resistant tumor cells; type: cell-based; settings: in words
[2] = treatment program 5 × i.p./i.p.
[3] = treatment program 3 × i.p./i.p.
[4] = treatment program 2 × i.p./i.p.

Structure (SMILES)	IC50 (L1210 leukemia cells) [µg/mL]	LD50 (NMRI mice) [mg/kg]	Solubility in water (Solubility in water) [mg/mL]	optimum Dose (greatest antitumoral effect), L1210 (L1210 leukemia; [3])	T/C % L1210 (at optimum dose) (L1210 leukemia; [3]) [%]	also measured
CC(CN)(CN)COCC(O)CO.[Cl][Pt][Cl] (stereo not drawn) [Compound 13, N,N'-(2-(2',3'-dihydroxypropyloxymethyl)-2-methyl-1,3-propanediamine)dichloroplatinum(II)]	1.25	57.3	25	–	–	optimum Dose (greatest antitumoral effect), L1210 (L1210 leukemia; [2]): 8; T/C % L1210 (at optimum dose) (L1210 leukemia; [2]): 156%
CCC(CN)(CN)COC.O=C([O-])CC(=O)[O-].[Pt+2] [corresponding malonate derivative]	–	–	–	–	–	cytostatic activity in the "in vivo" test using the L1210 tumor cell line (L1210 leukemia): high cytostatic activity; cross resistance in vitro to cis-diamminedichloroplatinum(II) [1]: only partially cross resistant
N.N.[Cl][Pt][Cl] [Cisplatin, cis-diamminedichloroplatinum (II), reference compound]	0.04	–	–	4	157	–
COCC(C)(CN)CN.O=C([O-])CC(=O)[O-].[Pt+2] [Compound 30, N,N'-(2-methyloxymethyl-2-methyl-1,3-propanediamine)platinum(II) malonate]	1.4	–	–	–	–	–
COCC(C)(CN)CN.O=C([O-])C1(C(=O)[O-])CCC1.[Pt+2] [Compound 31, N,N'-(2-methyloxymethyl-2-methyl-1,3-propanediamine)platinum(II) 1,1-cyclobutanedicarboxylate]	2.6	250	15	–	–	optimum Dose (greatest antitumoral effect), L1210 (L1210 leukemia; [4]): 112; LTS (Longterm survivor), L1210 (L1210 leukemia; treatment program 2 × i.p./i.p., optimum dose, animals living on day 60): 3/6; T/C % L1210 (at optimum dose) (L1210 leukemia; [4]): 226%
CCC(CN)(CN)COC.[Cl][Pt][Cl] [Compound 12, N,N'-(2-ethyl-2-methoxymethyl-1,3-propanediamine)dichloro-platinum(II)]	0.5	19	–	3	227	cytostatic activity in the "in vivo" test using the L1210 tumor cell line (L1210 leukemia): high cytostatic activity; cross resistance in vitro to cis-diamminedichloroplatinum(II) [1]: only partially cross resistant
COCC(C)(CN)CN.[Cl][Pt][Cl] [Compound 11, N,N'-(2-methoxymethyl-2-methyl-1,3-propanediamine)dichloro-platinum(II)]	1.4	–	3	–	–	–
COCC(O)COCC(C)(CN)CN.[Cl][Pt][Cl] (stereo not drawn) [Compound 14, N,N'-(2-(2'-hydroxy-3'-methoxypropyloxymethyl)-2-methyl-1,3-propanediamine)dichloroplatinum(II)]	0.75	57.1	16	4	168	–
CCC(CN)(CN)COC.O=C([O-])C1(C(=O)[O-])CCC1.[Pt+2] [Compound 32, N,N'-(2-ethyl-2-methyloxymethyl-1,3-propanediamine)platinum(II) 1,1-cyclobutanedicarboxylate]	3.6	437	70	–	–	T/C % L1210 (at optimum dose) (L1210 leukemia; [2]): 194%
CC(=O)NC1(CO)C[NH][Pt]([Cl])([Cl])[NH]C1 [Compound 17, N,N'-(2-acetamido-2-hydroxymethyl-1,3-propanediamine)di-chloroplatinum(II)]	1.1	50 to 100	10	30	113	–
CC(CN)(CN)CO[C@@H]1CC[C@H](O)[C@@H](CO)O1.[Cl][Pt][Cl] [Compound 15, N,N'-(2-(2',3'-didesoxy-alpha-D-erythrohexopyranosyloxy-methyl)-2-methyl-1,3-propanediamine)dichloroplatinum(II)]	2.9	1 to 5	17	–	–	–
